Source: patent US10472352B2, “Rac inhibitors” (Geneyus LLC, priority 2017, dated 2019)

Columns and labels:
Rac1 protein = biological target: T1, Rac1 protein (Homo sapiens, UniProt P63000); assay: Fluorescence Polarization Assay (Rac1 FP); assay type: binding; details: 125 nM his-tagged Rac1, 12.5 nM Bodipy-TR GTPγS, 30 minutes at 37° C.
T1 construct: purchased Cytoskeleton Inc. RC01
Protocol: Direct binding of Rac1 compound inhibitors to Rac1 protein was performed using fluorescence polarization (FP). Briefly, Rac1 inhibitors were initially dissolved in DMSO and then serial drug dilutions in exchange buffer (20 mM Tris pH 7.5, 50 mM NaCl, 1 mM MgCl, 1 mM EDTA) were prepared in a flat black 96-well half-area plate (Greiner). Recombinant his-tagged Rac1 protein (Cytoskeleton Inc. Cat. # RC01) was added to the inhibitors at a final concentration of 125 nM along with 12.5 nM Bodipy-TR GTPγS (Life Technologies Inc. Cat. # G35780) in exchange buffer and incubated for 30 minutes at 37° C. in exchange buffer. After 30 minutes of incubation. FP was measured on the M1000 Pro (Tecan) fluorescent plate reader with 590 nm±5 nm excitation and 625 nm±5 nm emission spectra settings.

[1] = biological target: His-Rac1 / GST-PBD (PAK Binding Domain) (Homo sapiens, UniProt P63000); assay: Rac Activation AlphaScreen Assay (Rac1 AS); assay type: biochemical; details: 500 nM GTPγS, 37° C., 1 hour; 'positive' = signal generated was higher than the positive control
Protocol: AlphaScreen® assays were performed in 96-well microplates in a final reaction volume of 60 μl. Recombinant His-Rac1, recombinant GST-PBD (PAK Binding Domain), donor and acceptor beads (PerkinElmer), and inhibitors were incubated in exchange buffer (20 mM Tris pH 7.5, 50 mM NaCl, 1 mM MgCl2, 1 mM EDTA, 500 nM GTPγS (guanosine 5′-[γ-thio]triphosphate)) at 37° C. Readings were performed on a Tecan M1000 pro microplate reader after 1 hour.

[2] = test system: MCF-7 human breast cancer cell line; assay: Cell Viability Assay (MCF7), PrestoBlue; assay type: cell-based; details: MCF7, 72 h, MCF-7 cells, three days after drug treatment
Protocol: In order to determine a compound's effect on cell viability, PrestoBlue assays were performed as previously described by Kuhn et al. (2013) with modifications. MCF-7 human breast cancer and IGR-1 human melanoma cell lines were seeded into 96-well plates 24 hours prior to addition of drug. Cells were treated with 0 to 200 μM (11 concentrations) of compound solubilized in DMSO, adjusting the final concentration of DMSO to 1% in the well. Three days after drug treatment, cell viability was measured by adding PrestoBlue (Life Technologies Ltd.; cat. No. A13262) reagent directly to wells containing media/drug to reach a final concentration of 10%. PrestoBlue is a modified molecule of the common Alamar Blue probe used to determine viability based on the ability of a cell to metabolize a nonfluorescent compound (resazurin) to a florescent molecule (resorufin). Following a 1 hour incubation period, total well fluorescence was measured using the microplate reader M1000 pro (Tecan) with excitation 560-5 nm and emission 590-5 nm. […] The percentage of living cells was then computed by comparison with control wells. Kuhn, Jonas et al., Assay and Drug Development Technologies, March 2013, Label-Free Cytotoxicity Screening Assay by Digital Holographic Microscopy.

[3] = test system: BT474 breast cancer cells; assay: BT474 Four (4) Day Cell Viability Assay; assay type: cell-based; details: BT474, 4 days, 32661 0 μM, fulvestrant 0.0 nM
Protocol: BT474 breast cancer cells that are Estrogen Receptor Positive and HER2+ were grown in 5% cFBS. 5,000 cells were seeded into each well of a 96-well plate and treated with escalating doses of lapatinib, fulvestrant, and 32661.

Compound | IC50 (Rac1 protein) [µM] | IC50 [1] [µM] | IC50 [2] [µM] | other results
O=C1COCCN1c1cccc(NCCCCCCSc2ccnc3cc(C(F)(F)F)ccc23)c1 [Compound 0033306, 4-(3-{(6-{[7-(trifluoromethyl)quinolin-4-yl]sulfanyl)hexyl}amino]phenyl} morpholin-3-one] | 1.54 | 8.2 | 3.58 | 
Cc1ccc(NCc2cn(CCCCCCSc3ccnc4cc(C(F)(F)F)ccc34)cn2)cc1 [Compound 0032880, 4-methyl-N-{[1-(6-{[7-(trifluoromethyl)quinolin-4-yl]sulfanyl)hexyl}-1H-imidazol-4-yl]methyl)aniline] | 1 | 3.2 | 6.3 | 
COCCN(Cc1cn(CCCCCCSc2ccnc3cc(C(F)(F)F)ccc23)nn1)C(=O)OC(C)(C)C [Compound 0032621, tert-butyl N-(2-methoxyethyl)-N-{[1-(6-{[7-(trifluoromethyl)quinolin-4-yl]sulfanyl}hexyl)-1H-1,2,3-triazol-4-yl]methyl}carbamate] | 1.48 |  | 9.34 | Rac1 AS IC50(uM) [1]: positive
COc1ccc(NCc2cn(CCCCCCSc3ccnc4cc(C(F)(F)F)ccc34)cn2)cc1 [Compound 0032881, 4-methoxy-N-{[1-(6-{[7-(trifluoromethyl)quinolin-4-yl]sulfanyl}hexyl)-1H-imidazol-4-yl]methyl}aniline] | 0.249 | 6 | 6.8 | 
CS(=O)(=O)CCNCc1ccc(-c2ccc3ncnc(Nc4ccc(OCc5cccc(F)c5)c(Cl)c4)c3c2)o1 [Lapatinib, lapatinib, reference compound] |  |  |  | cellular viability ([3]; lapatinib 6.9 nM): 99%; cellular viability ([3]; lapatinib 20.6 nM): 96%; cellular viability ([3]; lapatinib 61.7 nM): 80%; cellular viability ([3]; lapatinib 185.2 nM): 75%; cellular viability ([3]; lapatinib 555.6 nM): 77%; cellular viability ([3]; lapatinib 1666.7 nM): 68%; cellular viability ([3]; lapatinib 3333.0 nM): 60%
FC(F)(F)c1ccc2c(SCCCCCCn3cncc3CN3CCOCC3)ccnc2c1 [Compound 0032662, 4-({6-[5-(morpholin-4-ylmethyl)-1H-imidazol-1-yl]hexyl}sulfanyl)-7-(trifluoromethyl) quinoline] | 2.33 | 16.6 | 19.1 | 
FC(F)(F)c1ccc2c(SCc3cccc(Cn4cc(CN5CCOCC5)nn4)c3)ccnc2c1 [Compound 0032731, 4-[{(3-{[4-(morpholin-4-ylmethyl)-1H-1,2,3-triazol-1-yl]methyl}phenyl)methyl]sulfanyl)-7-(trifluoromethyl) quinoline] | 5.16 | 24.1 | 9.1 | 
FC(F)(F)c1ccc2c(SCCCCCCn3ccc(CN4CCOCC4)n3)ccnc2c1 [Compound 0032897, 4-({6-[3-(morpholin-4-ylmethyl)-1H-pyrazol-1-yl]hexyl}sulfanyl)-7-(trifluoromethyl) quinoline] | 2.79 | 35 | 11.6 | 
COc1ccc(N2CCN(Cc3cn(CCCCCCSc4ccnc5cc(C(F)(F)F)ccc45)nn3)CC2)cc1 [Compound 0032956, 4-{[6-(4-{[4-(4-methoxyphenyl)piperazin-1-yl]methyl}-1H-1,2,3-triazol-1-yl)hexyl]sulfanyl}-7-(trifluoromethyl) quinoline] | 1.41 | 8.2 | 10.7 | 

Continued by falling IC50 (Rac1 protein), values first:

IC50 (Rac1 protein) [µM] | IC50 [1] [µM] | IC50 [2] [µM] | Compound | other results
100 | 9.6 | 7.8 | OC(c1ccccc1)c1cn(CCCCCCSc2ccnc3cc(C(F)(F)F)ccc23)cn1 (stereo not shown) [Compound 0033043, phenyl[1-(6-{[7-(trifluoromethyl)quinolin-4-yl]sulfanyl}hexyl)-1H-imidazol-4-yl]methanol] | 
9.67 | 0.98 | 3.8 | FC(F)(F)c1ccc2c(SCCCCCNc3ccc(N4CCNCC4)cc3)ccnc2c1 [Compound 0033240, 4-(piperazin-1-yl)-N-(5-{[7-(trifluoromethyl)quinolin-4-yl]sulfanyl}pentyl)aniline] | 
9.66 | 0.383 | 3.8 | FC(F)(F)c1ccc2c(SCCCCCCNc3ccc(N4CCNCC4)cc3)ccnc2c1 [Compound 0033102, 4-(piperazin-1-yl)-N-(6-{[7-(trifluoromethyl)quinolin-4-yl]sulfanyl}hexyl)aniline] | 
4.81 | 1.1 | 3.6 | FC(F)(F)c1ccc2c(SCCCCCCNc3cccc(N4CCNCC4)c3)ccnc2c1 [Compound 0033235, 3-piperazin-1-yl-N-[6-[[7-(trifluoromethyl)-4-quinolyl]sulfanyl]hexyl]aniline] | 
4.76 |  | 13.8 | O=C(NCc1cn(CCCCCCSc2ccnc3cc(C(F)(F)F)ccc23)nn1)C1CCCCC1 [Compound 0032896, N-{[1-(6-{[7-(trifluoromethyl)quinolin-4-yl]sulfanyl}hexyl)-1H-1,2,3-triazol-4-yl]methyl} cyclohexane-carboxamide] | Rac1 AS IC50(uM) [1]: positive
4.32 |  | 7.8 | Fc1ccc2c(SCCCCCCn3cc(CN4CCOCC4)nn3)ccnc2c1 [Compound 0032833, 7-fluoro-4-{(6-[4-(morpholin-4-ylmethyl)-1H-1,2,3-triazol-1-yl]hexyl}sulfanyl) quinoline] | Rac1 AS IC50(uM) [1]: positive
3.73 | 62 | 11.3 | FC(F)(F)c1ccc2c(SCCCCCCCn3cc(CN4CCOCC4)nn3)ccnc2c1 [Compound 0032371, 4-({7-[4-(morpholin-4-ylmethyl)-1H-1,2,3-triazol-1-yl]heptyl}sulfanyl)-7-(trifluoromethyl) quinoline] | 
3.07 | 6.3 | 5.6 | O=C1CNCCN1c1ccc(NCCCCCCSc2ccnc3cc(C(F)(F)F)ccc23)cc1 [Compound 0033283, 1-{4-[(6-{[7-(trifluoromethyl)quinolin-4-yl]sulfanyl)hexyl}amino]phenyl} piperazin-2-one] | 
2.35 | 7.2 | 9 | Fc1ccc2c(SCCCCCCn3cnc(CNc4ccccc4)c3)ccnc2c1 [Compound 0033042, N-{(1-(6-[(7-fluoroquinolin-4-yl)sulfanyl]hexyl}-1H-imidazol-4-yl}methyl] aniline] | 
2.32 | 1.1 | 7.6 | NC1CCN(c2ccc(NCCCCCCSc3ccnc4cc(C(F)(F)F)ccc34)cc2)CC1 [Compound 0033278, 1-{4-[(6-{[7-(trifluoromethyl)quinolin-4-yl]sulfanyl}hexyl)amino]phenyl} piperidin-4-amine] | 
2.04 | 4.4 | 7.8 | FC(F)(F)c1ccc2c(SCCCCCCn3cnc(CNc4ccccc4)c3)ccnc2c1 [Compound 0032886, N-{[1-(6-{[7-(trifluoromethyl)quinolin-4-yl]sulfanyl)hexyl}-1H-imidazol-4-yl]methyl} aniline] | 
1.24 |  | 4.86 | FC(F)(F)c1ccc2c(SCCCCCOc3ccc(CN4CCOCC4)nc3)ccnc2c1 [Compound 0031778, 4-[(5-{[6-(morpholin-4-ylmethyl)pyridin-3-yl]oxy}pentyl)sulfanyl]-7-(trifluoromethyl)quinoline] | Rac1 AS IC50(uM) [1]: positive
0.71 | 2.3 | 10.8 | FC(F)(F)c1ccc2c(SCCCCCCNc3ccc(N4CCOCC4)cc3)ccnc2c1 [Compound 0033200, 4-(morpholin-4-yl)-N-(6-{[7-(trifluoromethyl)quinolin-4-yl]sulfanyl}hexyl)aniline] | 
